US20130324522A1, “INSECT ODORANT RECEPTOR ANTAGONISTS” (THE ROCKEFELLER UNIVERSITY, priority 2010, published 2013)
Like-named read-outs stand apart in the source and are kept apart here.

Key:
Type in all cases: cell-based
[1] = target: T1, TRP channel (TRPM8) (Mus musculus, UniProt Q8R4D5); assay: Ca2+-imaging of stable HEK293T cell line TRPM8
T1 construct: Full-length cDNAs for mosquito (Anopheles gambiae) odorant receptor (OR1, OR2, OR7, OR8, OR28), and fly (Drosophila melanogaster) odorant receptor (Or47a, Or83b), mouse TRP channel (TRPM8); expressed in transfected cells
T1 sequence (Q8R4D5 whole entry): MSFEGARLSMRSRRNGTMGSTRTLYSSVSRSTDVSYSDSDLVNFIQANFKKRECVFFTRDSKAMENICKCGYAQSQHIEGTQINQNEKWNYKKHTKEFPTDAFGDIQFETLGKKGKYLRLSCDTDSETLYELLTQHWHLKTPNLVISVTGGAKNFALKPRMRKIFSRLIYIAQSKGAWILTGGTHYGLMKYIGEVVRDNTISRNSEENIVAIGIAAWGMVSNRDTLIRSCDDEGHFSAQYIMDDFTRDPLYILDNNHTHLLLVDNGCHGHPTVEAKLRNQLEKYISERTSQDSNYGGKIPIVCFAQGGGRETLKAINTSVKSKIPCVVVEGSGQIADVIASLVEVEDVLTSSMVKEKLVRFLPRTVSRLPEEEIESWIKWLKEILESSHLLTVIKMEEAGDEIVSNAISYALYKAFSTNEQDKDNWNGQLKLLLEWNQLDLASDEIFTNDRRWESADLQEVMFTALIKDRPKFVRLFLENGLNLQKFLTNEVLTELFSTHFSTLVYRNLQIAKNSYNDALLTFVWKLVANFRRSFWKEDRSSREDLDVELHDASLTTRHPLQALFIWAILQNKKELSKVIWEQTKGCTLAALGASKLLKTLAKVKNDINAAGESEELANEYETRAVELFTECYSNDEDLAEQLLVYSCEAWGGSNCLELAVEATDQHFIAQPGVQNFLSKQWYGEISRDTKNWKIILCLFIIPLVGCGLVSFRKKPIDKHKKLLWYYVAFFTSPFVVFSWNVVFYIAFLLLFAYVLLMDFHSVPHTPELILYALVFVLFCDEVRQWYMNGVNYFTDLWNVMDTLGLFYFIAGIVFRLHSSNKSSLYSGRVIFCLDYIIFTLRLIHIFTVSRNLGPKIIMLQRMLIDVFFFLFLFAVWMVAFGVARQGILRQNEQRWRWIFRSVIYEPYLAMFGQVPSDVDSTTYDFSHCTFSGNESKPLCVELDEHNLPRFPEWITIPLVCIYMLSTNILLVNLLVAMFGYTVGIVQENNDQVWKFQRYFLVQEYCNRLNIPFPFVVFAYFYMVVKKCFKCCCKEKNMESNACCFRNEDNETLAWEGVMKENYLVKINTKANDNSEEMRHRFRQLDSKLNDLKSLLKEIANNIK
Description: (§1) Full-length cDNAs for mosquito (Anopheles gambiae) odorant receptor (OR1, OR2, OR7, OR8, OR28), and fly (Drosophila melanogaster) odorant receptor (Or47a, Or83b), mouse TRP channel (TRPM8), and mouse serotonin receptor (5HT3) were obtained and subcloned into mammalian expression vectors. The following mammalian expression vectors were used:
(§2) Stable cell lines OR1/OR7, OR2/OR7, OR8/OR7, OR10/OR7, OR28/OR7 and TRPM8 were generated from HEK293T cells. HEK293T-based cell lines were cultured in DMEM supplemented with these additional antibiotics: 6 μg/mL blasticidin and 1 μg/mL puromycin, with the exception of the TRPM8 cell lines, which was cultured in DMEM supplemented with 1 μg/mL puromycin.
(§3) Cells were trypsinized and split into 35 mm dishes one day before transfection. Confluent cells (60-70%) in 35 mm dishes were transfected with 1 μg of insect OR(X) plasmids in pME18s-bla and 1 μg of OR7-pME18s-puro using lipofectamine 2000. For Anopheles odorant receptors, two plasmids were co-transfected into HEK cells: the ligand-specific receptor (OR1, OR2, OR8, OR28) and the corresponding olfactory co-receptor: OR7. Cell lines containing TRPM8 were transfected with single plasmid.
(§4) Stable cell lines were cultured in 10 cm dishes, and confluent cells (70-80%) were trypsinized. 10,000 cells/20 μL were transferred into each well of 384-well plates coated with poly-D-lysine, and cultured for 2 days. For Flip-In T-Rex cells (cell lines expressing Or47a/Or83b and 5HT3), 5 μL of tetracycline (5 μg/mL) were added 1 day before the assay. 20 μL of Ca-4 dye was loaded into each well for 1.5 hr at room temperature in the dark, and the dye-loaded plates were subjected to Ca^2+-imaging using a Hamamatsu FDSS6000 real time fluorescence plate reader. Odorant solutions (9× final concentration) were prepared by dissolving 1M stock solutions into Hank's Buffered Salt Solution (HBSS), and 30 μL of odor solution was transferred to each well in 384-well plates.
(§5) Compounds ([…] in DMSO) were stored in 384-well plates, and last two columns (32 wells total) contained only DMSO. 200 nL of small compounds were transferred into the odorant plates before the assay using the Perkin-Elmer Janus workstation. The odorant plates were spun down to remove air bubbles, and placed on the FDSS6000 plate loader, and 5 μL of odorant solution was applied to the cell plate on the FDSS6000. Ca^2+ increase was monitored with fluorescence at 525 nm by excitation at 485 nm.

[2] = target: T2, mOREG (Mus musculus, UniProt Q920P2); assay: Ca2+-imaging, control receptor mOREG; details: compound applied at 4 μM; read-out: Percent Inhibition mOREG
T2 sequence (Q920P2 1-313): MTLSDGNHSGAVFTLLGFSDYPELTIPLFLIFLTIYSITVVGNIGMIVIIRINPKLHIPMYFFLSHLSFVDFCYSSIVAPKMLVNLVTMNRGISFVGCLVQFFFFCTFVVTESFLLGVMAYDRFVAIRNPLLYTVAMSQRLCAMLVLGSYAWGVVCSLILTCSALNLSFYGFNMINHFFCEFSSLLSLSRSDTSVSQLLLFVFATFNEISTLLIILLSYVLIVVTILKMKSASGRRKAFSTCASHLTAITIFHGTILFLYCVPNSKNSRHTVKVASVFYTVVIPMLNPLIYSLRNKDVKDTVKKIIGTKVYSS
Description: as §4, with “plates. The last two columns of the plate (32 wells total) were used as control wells as follows: • negative control with HBSS buffer (16 wells) • positive control with ligands (16 wells).” for “plates.”
as §5

[3] = target: OR10/OR7 (Anopheles gambiae, UniProt B5U0U7+Q7QCC7); assay: Ca2+-imaging of stable HEK293T cell line OR10/OR7
Sequence of OR10/OR7 (Q7QCC7 whole entry): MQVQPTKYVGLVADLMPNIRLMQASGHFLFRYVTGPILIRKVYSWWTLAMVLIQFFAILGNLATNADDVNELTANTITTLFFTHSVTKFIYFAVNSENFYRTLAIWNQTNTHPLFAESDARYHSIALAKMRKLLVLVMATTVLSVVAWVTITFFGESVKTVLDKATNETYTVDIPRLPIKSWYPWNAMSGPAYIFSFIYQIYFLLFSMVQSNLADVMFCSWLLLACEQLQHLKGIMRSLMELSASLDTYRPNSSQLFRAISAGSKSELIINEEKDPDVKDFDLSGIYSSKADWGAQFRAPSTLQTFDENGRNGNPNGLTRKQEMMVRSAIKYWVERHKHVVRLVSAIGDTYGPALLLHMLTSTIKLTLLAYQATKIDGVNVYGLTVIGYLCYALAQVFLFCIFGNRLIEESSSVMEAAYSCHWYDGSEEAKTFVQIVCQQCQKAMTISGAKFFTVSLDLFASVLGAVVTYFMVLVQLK
Sequence of OR10/OR7 (B5U0U7 entry or part of it): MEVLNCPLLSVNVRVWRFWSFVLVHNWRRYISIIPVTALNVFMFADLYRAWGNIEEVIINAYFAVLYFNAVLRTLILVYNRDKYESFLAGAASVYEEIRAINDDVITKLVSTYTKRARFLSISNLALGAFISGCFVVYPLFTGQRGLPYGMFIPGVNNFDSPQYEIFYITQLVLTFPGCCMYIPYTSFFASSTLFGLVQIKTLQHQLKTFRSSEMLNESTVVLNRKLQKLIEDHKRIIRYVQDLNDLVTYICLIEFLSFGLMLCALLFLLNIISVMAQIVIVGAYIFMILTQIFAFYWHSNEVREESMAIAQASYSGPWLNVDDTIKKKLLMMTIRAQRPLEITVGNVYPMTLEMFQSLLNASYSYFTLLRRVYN
Description: as §2
After one day of incubation, the transfected cells were transferred into 10 cm dishes with DMEM containing antibiotics as follows: • 0.5 μg/mL of blasticidin for OR1/OR7, OR2/OR7, OR8/OR7, OR10/OR7, OR28/OR7 • 0.2 μg/mL of puromycin for TRPM8.
as §4, §5

[4] = target: OR8/OR7 (Anopheles gambiae, UniProt Q7PUT5+Q7QCC7); assay: Ca2+-imaging of stable HEK293T cell line OR8/OR7
Sequence of OR8/OR7 (Q7QCC7 whole entry): as the sequence (Q7QCC7 whole entry) above
Sequence of OR8/OR7 (Q7PUT5 entry or part of it): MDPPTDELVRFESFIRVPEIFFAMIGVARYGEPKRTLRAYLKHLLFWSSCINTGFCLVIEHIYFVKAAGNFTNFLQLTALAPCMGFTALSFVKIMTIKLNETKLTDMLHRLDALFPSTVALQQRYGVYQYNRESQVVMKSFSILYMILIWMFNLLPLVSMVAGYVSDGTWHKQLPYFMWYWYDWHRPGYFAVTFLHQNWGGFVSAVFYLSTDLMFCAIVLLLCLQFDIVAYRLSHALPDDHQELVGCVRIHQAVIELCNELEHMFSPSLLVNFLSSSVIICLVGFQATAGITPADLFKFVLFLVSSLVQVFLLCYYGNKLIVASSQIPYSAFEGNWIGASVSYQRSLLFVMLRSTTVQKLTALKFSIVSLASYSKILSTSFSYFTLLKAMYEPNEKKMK
Description: as §1, §2, §3, §4, §5

[5] = target: OR28/OR7 (Anopheles gambiae, UniProt A0A1S4GFY3+Q7QCC7); assay: Ca2+-imaging of stable HEK293T cell line OR28/OR7
Sequence of OR28/OR7 (A0A1S4GFY3 entry or part of it): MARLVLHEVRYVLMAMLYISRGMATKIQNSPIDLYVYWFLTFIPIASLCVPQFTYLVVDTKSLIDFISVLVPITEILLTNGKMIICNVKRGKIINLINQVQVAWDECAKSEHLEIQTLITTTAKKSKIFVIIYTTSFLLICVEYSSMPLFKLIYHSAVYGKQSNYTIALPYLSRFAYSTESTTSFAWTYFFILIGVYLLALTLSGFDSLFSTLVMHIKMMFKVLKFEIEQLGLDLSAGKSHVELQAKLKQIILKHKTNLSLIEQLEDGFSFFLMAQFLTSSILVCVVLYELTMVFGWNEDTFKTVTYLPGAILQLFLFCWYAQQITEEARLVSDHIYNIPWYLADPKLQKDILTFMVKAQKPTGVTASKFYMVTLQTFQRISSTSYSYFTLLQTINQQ
Sequence of OR28/OR7 (Q7QCC7 whole entry): as the sequence (Q7QCC7 whole entry) above
Description: as §1, §2, §3, §4, §5

[6] = ligand menthol 300 μM, read-out: IC50 TRPM8
[7] = ligand indole 30 μM, read-out: IC50 OR10 OR7
[8] = ligand 1-octen-3-ol 30 μM, read-out: IC50 OR8 OR7
[9] = ligand acetophenone 300 μM, read-out: IC50 OR28 OR7

Question: Which results are given for `CCc1c(C(=O)NCc2cccnc2)cnn1-c1ccccc1` [RU-0048504]?
Answer: inhibition at 4 µM ([1]; HEK-293T, compound applied at 4 μM, read-out: Percent Inhibition TRPM8): < 25%; inhibition at 4 µM [2]: < 25%; inhibition at 4 µM ([3]; HEK-293T, compound applied at 4 μM, read-out: Percent Inhibition OR10 OR7): 51 to 74%; IC50 ([3]; Table B, read-out: IC50 OR10): < 0.1 µM; inhibition at 4 µM ([4]; HEK-293T, compound applied at 4 μM, read-out: Percent Inhibition OR8 OR7): < 25%; inhibition at 4 µM ([5]; HEK-293T, compound applied at 4 μM, read-out: Percent Inhibition OR28 OR7): > 75%; IC50 ([5]; Table B, read-out: IC50 OR28): < 0.1 µM

Question: For `O=C(C1CCCC1)N(Cc1nccn1CCc1c(F)cccc1Cl)C1CC1` [RU-I2], which IC50 [1, 6] is on record?
Answer: > 20 µM

Question: What about the IC50 [3, 7] of the same molecule?
Answer: 2 to 20 µM

Question: What about the IC50 [4, 8] of the same molecule?
Answer: 2 to 20 µM

Question: And the IC50 [5, 9]?
Answer: 2 to 20 µM

Question: Which results are given for `CCNc1nc(NCC)nc(SC)n1` [RU-T4]?
Answer: IC50 [1, 6]: > 20 µM; IC50 [3]: 20 to 50 µM; IC50 [4]: 2 to 20 µM; IC50 [5]: > 20 µM

Question: For `Fc1cccc(Cl)c1Cn1ccnc1CN(CC1CCCC1)C1CC1` [RU-I4], which IC50 [1, 6] is on record?
Answer: > 20 µM

Question: And the IC50 [3, 7]?
Answer: > 20 µM

Question: And the IC50 [4, 8]?
Answer: > 220 µM

Question: And the IC50 [5, 9]?
Answer: 2 to 20 µM

Question: Which results are given for `CC(C)Nc1nc(Cl)nc(NC(C)C)n1` [RU-T1]?
Answer: IC50 [1, 6]: > 20 µM; IC50 [3]: > 20 µM; IC50 [4]: > 220 µM; IC50 [5]: > 220 µM

Question: What does the source list for `CN(Cc1nccn1Cc1c(F)cccc1Cl)C(=O)C1CCCC1` [RU-I5]?
Answer: IC50 [1, 6]: > 20 µM; IC50 [3, 7]: > 20 µM; IC50 [4, 8]: 2 to 20 µM; IC50 [5, 9]: 2 to 20 µM

Question: For `CC(C)Nc1nc(Cl)nc(N(C)C(C)C)n1` [RU-T7], which IC50 [1] is on record?
Answer: > 20 µM

Question: What about the IC50 [3] of the same molecule?
Answer: > 20 µM

Question: What about the IC50 [4] of the same molecule?
Answer: < 2 µM

Question: And the IC50 [5]?
Answer: > 20 µM

Question: With `CC(C)Nc1nc(Cl)nc(NCc2ccccc2)n1` [RU-T9] as the molecule, how does the IC50 [1] read?
Answer: > 20 µM

Question: What about the IC50 [3] of the same molecule?
Answer: > 20 µM

Question: And the IC50 [4]?
Answer: > 220 µM

Question: What about the IC50 [5] of the same molecule?
Answer: > 50 µM

Question: Which results are given for `CCN(CC)C(=O)c1cccc(C)c1` [DEET, N,N-diethyl-m-toluamide, reference compound]?
Answer: IC50 [1, 6]: > 20 µM; IC50 [3, 7]: > 50 µM; IC50 [4, 8]: > 50 µM; IC50 [5, 9]: > 50 µM

Question: Which IC50 [1, 6] does the source give for `CSc1nc(NC(C)C)nc(NC(C)C)n1` [RU-T2] here?
Answer: > 20 µM

Question: What about the IC50 [3] of the same molecule?
Answer: 2 to 20 µM

Question: What about the IC50 [4] of the same molecule?
Answer: < 2 µM

Question: What about the IC50 [5] of the same molecule?
Answer: 2 to 20 µM

Question: Which results are given for `CCNc1nc(Cl)nc(NC(C)C)n1` [RU-T5]?
Answer: IC50 [1, 6]: > 20 µM; IC50 [3]: 2 to 20 µM; IC50 [4]: < 2 µM; IC50 [5]: > 20 µM

Question: `CC(C)Nc1nc(NC(C)C)nc(C(F)(F)F)n1` [RU-T8] was tested. Which IC50 [1] did it give?
Answer: > 20 µM

Question: What about the IC50 [3] of the same molecule?
Answer: > 20 µM

Question: What about the IC50 [4] of the same molecule?
Answer: 2 to 20 µM

Question: And the IC50 [5]?
Answer: > 20 µM

Question: With `Cc1nc(NC(C)C)nc(NC(C)C)n1` [RU-T6] as the molecule, how does the IC50 [1] read?
Answer: > 20 µM

Question: What about the IC50 [3] of the same molecule?
Answer: > 20 µM

Question: And the IC50 [4]?
Answer: < 2 µM

Question: And the IC50 [5]?
Answer: 20 to 50 µM

Question: How did the IC50 [1, 6] turn out when `O=C(c1nccn1Cc1c(F)cccc1Cl)N(CC1CCCC1)C1CC1` [RU-I3] was run?
Answer: > 20 µM

Question: What about the IC50 [3, 7] of the same molecule?
Answer: 2 to 20 µM

Question: And the IC50 [4, 8]?
Answer: < 2 µM

Question: And the IC50 [5, 9]?
Answer: < 2 µM
